Data from patent US10968232B2 (Merck Sharp & Dohme Corp., priority 2016, dated 2021).

Biological target: T1, human GPR40 (Homo sapiens, UniProt O14842)
T1 construct: expressed in transfected cells
Assay: Inositol Phosphate Turnover (IP1) Assay
Type: cell-based
Details: HEK cells stably expressing human GPR40; CisBio IP-One kit; 60 minutes at 37 degrees; read-out: Human IP1 EC50
Method: Human GPR40 stable cell-lines were generated in HEK cells. The expression plasmids were transfected using lipofectamine (Life Technologies) following manufacturer's instructions. Stable cell-lines were generated following drug selection and single cell cloning. The assay was performed in 384-well format. HEK cells stably expressing human GPR40 were plated at 7500 cells per well in growth medium (DMEM/10% fetal calf serum). Cell plates were then incubated 16 hours at 37 degrees in a 5% CO2 incubator. Measurement of Inositol Phosphate Turnover (IP1) was performed using the CisBio IP-One kit (Part number 62IPAPEB). After the 16 hour incubation, the growth media was removed by centrifugation using the BlueWasher (AusWasher GUI Ver. v1.0.1.8) Protocol #21-“Light Dry” and 10 ul of stimulation buffer (prepared as described in the kit) was added to each well. In a separate plate, compounds were diluted in DMSO (200-fold over the final concentration in the assay well) and 50 nl was acoustically transferred to the appropriate well in the assay cell plate. The plates were then incubated for 60 minutes at 37 degrees in a 5% CO2 incubator. 10 ul of detection buffer (also prepared as described in the IP-One kit) was added to each well and the plates were incubated at room temperature for 60 minutes in the dark. The plates were then read in a Perkin Elmer EnVision or equivalent reader able to measure FRET. […] Data was normalized to % activity using a reference compound and EC50s determined using a standard 4-parameter fit.

T1 sequence (O14842 whole entry): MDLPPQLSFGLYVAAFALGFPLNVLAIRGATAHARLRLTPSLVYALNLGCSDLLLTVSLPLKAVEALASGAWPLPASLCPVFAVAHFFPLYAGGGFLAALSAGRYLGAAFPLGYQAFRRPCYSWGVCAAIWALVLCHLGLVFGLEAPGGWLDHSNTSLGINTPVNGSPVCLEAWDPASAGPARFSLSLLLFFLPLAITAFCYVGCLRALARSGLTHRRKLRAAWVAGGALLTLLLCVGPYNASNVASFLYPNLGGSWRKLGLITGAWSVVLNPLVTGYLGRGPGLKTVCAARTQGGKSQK

| EC50 [nM] | Compound |
| --- | --- |
| 8.62 | C[C@H](C(=O)O)[C@H](c1ccc2c(c1)OC1(CC2)CC(N[C@H](C)c2cc(C(F)(F)F)ccc2C(F)(F)F)C1)C1CC1 (stereo partly drawn) [Example 91, (2S,3R)-3-(3′-((1-(2,5-bis(trifluoromethyl)phenyl)ethyl)amino)spiro[chroman-2,1′-cyclobutan]-7-yl)-3-cyclopropyl-2-methylpropanoic Acid] |
| 1.62 | CC(c1cc(C(F)(F)F)ccc1C(F)(F)F)N(C)C1CC2(CCc3ccc([C@H](C4CC4)[C@H](C)C(=O)O)cc3O2)C1 (stereo partly drawn) [Example 99, (2S,3R)-3-(3′-((1-(2,5-bis(trifluoromethyl)phenyl)ethyl)(methyl)amino)spiro[chroman-2,1′-cyclobutan]-7-yl)-3-cyclopropyl-2-methylpropanoic Acid] |
| 2.98 | C[C@H](C(=O)O)[C@H](c1ccc2c(c1)OC1(CC2)CCC(N(C)c2ncccc2C(F)(F)F)CC1)C1CC1 (single isomer, unassigned) [Example 63] |
| > 1000 | C[C@H](C(=O)O)[C@H](c1ccc2c(c1)OC1(CC2)CCN([C@@H](C)c2cc(C(F)(F)F)ccc2C(F)(F)F)CC1)C1CC1 [Example 131, Sodium (2S,3R)-3-(1′-((S)-1-(2,5-bis(trifluoromethyl)phenyl)ethyl)spiro[chromane-2,4′-piperidin]-7-yl)-3-cyclopropyl-2-methylpropanoate] |
| 3.1 | C[C@H](C(=O)O)[C@H](c1ccc2c(c1)OC1(CC2)CCN([C@H](C)c2cc(C(F)(F)F)ccc2C(F)(F)F)CC1)C1CC1 [Example 130, Sodium (2S,3R)-3-(1′-((R)-1-(2,5-Bis(trifluoromethyl)phenyl)ethyl)spiro[chromane-2,4′-piperidin]-7-yl)-3-cyclopropyl-2-methylpropanoate] |
| 4.27 | C[C@H](C(=O)O)[C@H](c1ccc2c(c1)OC1(CC2)CCC(N(C)c2cc(C(F)(F)F)ccc2C(F)(F)F)CC1)C1CC1 (stereo partly drawn) [Example 66, (2S,3R)-3-(4′-((2,5-bis (trifluoromethyl)phenyl) (methyl)amino)spiro [chroman-2,1′-cyclohexan]-7-yl)-3-cyclopropyl-2-methylpropanoic acid] |

The remaining lines, values behind:

| Compound | EC50 [nM] |
| --- | --- |
| C[C@H](C(=O)O)[C@H](c1ccc2c(c1)OC1(CC2)CCN(c2cccc3c2c(C(F)(F)F)nn3C)CC1)C1CC1 [Example 36, (2S,3R)-3-cyclopropyl-2-methyl-3-(1′-(1-methyl-3-(trifluoromethyl)-1H-indazol-4-yl)spiro[chroman-2,4′-piperidin]-7-yl)propanoic Acid] | 4.78 |
| Cc1nc(C(F)(F)F)c(CN2CCC3(CCc4ccc([C@H](C5CC5)[C@H](C)C(=O)O)cc4O3)CC2)s1 [Example 53, (2S,3R)-3-cyclopropyl-2-methyl-3-(1′-((2-methyl-4-(trifluoromethyl)thiazol-5-yl)methyl)spiro[chroman-2,4′-piperidin]-7-yl)propanoic Acid] | 107 |
| CCC(c1cc(C(F)(F)F)cc(Cl)c1F)N1CCC2(CCc3ccc([C@H](C4CC4)[C@H](C)C(=O)O)cc3O2)CC1 (stereo partly drawn) [Example 109, (2S,3R)-3-(1′-(1-(3-chloro-2-fluoro-5-(tri-fluromethyl)phenyl)propyl)spiro[chroman-2,4′-piperidin]-7-yl)-3-cyclopropyl-2-methylpropanoic acid] | 2.51 |
| Cc1nocc1-c1ccc(OC(F)(F)F)c(C(C)N2CCC3(CCc4ccc([C@H](C5CC5)[C@H](C)C(=O)O)cc4O3)CC2)c1 (single isomer, unassigned) [Example 115, (2S,3R)-3-cyclopropyl-2-methyl-3-(1′-((R or S)-1-(5-(3-methylisoxazol-4-yl)-2-(trifluoromethoxy)phenyl)eth-yl)spiro[chroman-2,4′-piperidin]-7-yl)propanoic acid] | 41.7 |
| CC(c1cc(Cl)cc(Cl)c1OC(F)F)N1CCC2(CCc3ccc([C@H](C4CC4)[C@H](C)C(=O)O)cc3O2)CC1 (single isomer, unassigned) [Example 79, (2S,3R)-3-cyclopropyl-3-(1′-((R or S)-1-(3,5-dichloro-2-(difluoromethoxy)phenyl)-ethyl)spiro[chroman-2,4′-piperidin]-7-yl)-2-methylpropanoic Acid] | 2.44 |
| C[C@H](C(=O)O)[C@H](c1ccc2c(c1F)OC1(CC2)CCN(Cc2cc(Cl)ccc2OC(F)(F)F)CC1)C1CC1 [Example 4, (2S,3R)-3-(1′-(5-chloro-2-(trifluoromethoxy)benzyl)-8-fluorospiro[chroman-2,4′-piperidin]-7-yl)-3-cyclopropyl-2-methylpropanoic Acid] | 8.06 |
| C[C@H](C(=O)O)[C@H](c1ccc2c(c1)OC1(CC2)CC2(CN([C@@H](C)c3cc(C(F)(F)F)ccc3C(F)(F)F)C2)C1)C1CC1 [Example 127, (2S,3R)-3-cyclopropyl-3-(2,2-(S)-2-(1-(2,5-bis(trifluoromethyl)phen-yl)ethyl)-2-azaspiro[3.3]-heptane-chroman-7-yl)-2-methylpropanoic acid] | 0.46 |
| C[C@H](C(=O)O)[C@H](c1ccc2c(c1)OC1(CC2)CCN(S(=O)(=O)c2cc(C(F)(F)F)ccc2C(F)(F)F)CC1)C1CC1 [Example 23, (2S,3R)-3-(1′-((2,5-bis(trifluoromethyl)phenyl)sulfonyl)spiro[chroman-2,4′-piperidin]-7-yl)-3-cyclopropyl-2-methylpropanoic Acid] | 14.3 |
| COc1cc(C(C)N2CCC3(CCc4ccc([C@H](C5CC5)[C@H](C)C(=O)O)cc4O3)CC2)c(C(F)(F)F)cn1 (single isomer, unassigned) [Example 106, sodium (2S,3R)-3-cyclo-propyl-3-(1′-((R or S)-1-(2-methoxy-5-(trifluoro-methyl)pyridin-4-yl)ethyl)spiro[chroman-2,4′-piperidin]-7-yl)-2-methylpropanoate] | 15.6 |
| Cc1ccc(OC(F)(F)F)c(CN2CCC3(CCc4ccc([C@H](C5CC5)[C@H](C)C(=O)O)cc4O3)CC2)c1 [Example 77, (2S,3R)-3-cyclopropyl-2-methyl-3-(1′-(5-methyl-2-(trifluoromethoxy)benzyl)spiro[chroman-2,4′-piperidin]-7-yl)propanoic acid] | 23.4 |
| CC(c1cc(OC(F)(F)F)ccc1F)N1CCC2(CCc3ccc([C@H](C4CC4)[C@H](C)C(=O)O)cc3O2)CC1 (mixture of isomers) [Example 29, (2S,3R)-3-cyclopropyl-3-(1′-((RS)-1-(2-fluoro-5-(trifluoromethoxy)phenyl)ethyl)spiro[chroman-2,4′-piperidin]-7-yl)-2-methylpropanoic acid] | 115 |
| C[C@H](C(=O)O)[C@H](c1ccc2c(c1)OC1(CC2)CCN(Cc2nc(C(F)(F)F)ccc2Cl)CC1)C1CC1 [Example 32, (2S,3R)-3-(1′-((3-chloro-6-(trifluoromethyl)-pyridin-2-yl)methyl)-spiro-[chroman-2,4′-piperidin]-7-yl)-3-cyclopropyl-2-methylpropanoic acid] | 177 |
| C[C@H](C(=O)O)[C@H](c1ccc2c(c1)OC1(CC2)CCN(c2ccc3c(C(F)(F)F)nn(C)c3c2)CC1)C1CC1 [Example 37, (2S,3R)-3-cyclopropyl-2-methyl-3-(1′-(1-methyl-3-(trifluoromethyl)-1H-indazol-6-yl)spiro[chroman-2,4′-piperidin]-7-yl)-propanoic acid] | 683 |
